Laboratory results: ChEMBL document CHEMBL1201862, “PubChem BioAssay data set” (2004)
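Following 48 hours of exposure in 96-well plates, responses at five concentrations were used to interpolate endpoints linearly. GI50 is the concentration that inhibits growth by half.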 Activity calls are given as the source filed them. Cut-off read from the data, not from the text of the source: active = GI50 up to about 1.1 µM and inactive = higher.

Assays:
Assay in all cases: inhibition of tumour cell growth, NCI panel, 48 h
[1] = system: UACC-257
[2] = system: K562
[3] = system: HL-60
[4] = system: CCRF-CEM
[5] = system: KM12
[6] = system: HOP-62
[7] = system: OVCAR-4
[8] = system: IGROV-1
[9] = system: SF-268
[10] = system: MDA-N
[11] = system: SN12C
[12] = system: SK-OV-3
[13] = system: SW-620
[14] = system: UACC-62
[15] = system: HCT-116
[16] = system: OVCAR-5
[17] = system: SK-MEL-2
[18] = system: OVCAR-3
[19] = system: NCI-H522

Measured: GI50

COc1ccc(Nc2nc3c([nH]2)c(=O)n(C)c(=O)n3C)cc1
inactive: [1] > 10 µM | [2] > 10 µM | [3] > 10 µM | [4] > 10 µM | [5] > 10 µM | [6] > 10 µM | [7] > 10 µM | [8] > 10 µM | [9] > 10 µM | [10] > 10 µM | [11] > 10 µM | [12] > 10 µM | [13] > 10 µM | [14] > 10 µM

Cc1ccc(Cc2n[nH]c(=O)n2N2C(=O)c3ccccc3C2=O)cc1
inactive: [1] > 100 µM | [2] > 100 µM | [4] > 100 µM | [15] > 100 µM | [5] > 100 µM | [6] > 100 µM | [7] > 100 µM | [16] > 100 µM | [17] > 100 µM | [8] > 100 µM | [18] > 100 µM | [10] > 100 µM | [11] > 100 µM | [13] > 100 µM | [14] > 100 µM

COC(=O)/C=C/c1ccc(OP(=O)(O)O)c(OC)c1
inactive: [1] > 100 µM | [4] > 100 µM | [15] > 100 µM | [5] > 100 µM | [6] > 100 µM | [7] > 100 µM | [16] > 100 µM | [17] > 100 µM | [8] > 100 µM | [9] > 100 µM | [18] > 100 µM | [10] > 100 µM | [11] > 100 µM | [12] > 100 µM | [19] > 100 µM | [13] > 100 µM | [14] > 100 µM

N#Cc1c(-c2ccccc2)nc(-c2ccccc2)sc1=S
inactive: [1] > 100 µM | [2] > 100 µM | [3] > 100 µM | [4] 49.2 µM | [15] > 100 µM | [5] > 100 µM | [6] > 100 µM | [7] > 100 µM | [16] > 100 µM | [17] > 100 µM | [8] > 100 µM | [9] > 100 µM | [18] > 100 µM | [10] > 100 µM | [11] > 100 µM | [12] > 100 µM | [13] > 100 µM | [14] > 100 µM

O=C(NC1CCCCC1NC(c1ccccc1)(c1ccccc1)c1ccccc1)C(=O)NC1CCCCC1NC(c1ccccc1)(c1ccccc1)c1ccccc1 (configuration not stated)
inactive: [1] > 100 µM | [2] > 100 µM | [3] > 100 µM | [4] > 100 µM | [15] > 100 µM | [5] > 100 µM | [6] 27.5 µM | [7] 22.6 µM | [16] > 100 µM | [17] > 100 µM | [8] 69.2 µM | [9] 24 µM | [18] > 100 µM | [11] > 100 µM | [12] 28.6 µM | [19] 89.9 µM | [13] > 100 µM | [14] > 10 µM

CN(C)c1ccc(-c2c(C#N)c(-c3ccccc3)n(NS(=O)(=O)c3ccccc3)c(=O)c2C#N)cc1
inactive: [1] > 100 µM | [2] 49.1 µM | [4] 26.5 µM | [15] 34.1 µM | [5] 65.6 µM | [6] 38.8 µM | [7] > 100 µM | [16] > 100 µM | [17] 41.6 µM | [8] 40.8 µM | [9] 56 µM | [10] 68.1 µM | [11] 68.9 µM | [12] 67.3 µM | [19] 58.3 µM | [13] 43.3 µM | [14] 43.3 µM

COc1ccc2nc3n(c2c1)C(c1c(Cl)cccc1Cl)SC3 (configuration not stated)
inactive: [1] > 100 µM | [2] > 100 µM | [3] > 100 µM | [4] > 100 µM | [15] > 100 µM | [5] > 100 µM | [6] 59.7 µM | [7] 24.7 µM | [16] > 100 µM | [17] > 100 µM | [8] > 100 µM | [18] > 100 µM | [10] 87.9 µM | [11] > 100 µM | [12] > 100 µM | [13] > 100 µM | [14] > 100 µM

CCCCC(=O)c1ccc2ccccc2c1O
inactive: [1] > 100 µM | [2] 28.8 µM | [3] 51.3 µM | [4] 42.8 µM | [15] > 100 µM | [5] > 100 µM | [6] > 100 µM | [7] > 100 µM | [17] > 100 µM | [8] > 100 µM | [9] > 100 µM | [12] > 100 µM | [13] > 100 µM | [14] > 100 µM

O=C(O)Cc1ccc(/N=N/c2c(O)c(C(=O)O)cc3ccccc23)cc1
inactive: [1] > 100 µM | [2] > 100 µM | [3] > 100 µM | [4] > 100 µM | [15] > 100 µM | [5] > 100 µM | [6] > 100 µM | [7] > 100 µM | [16] > 100 µM | [17] > 100 µM | [8] > 100 µM | [9] > 100 µM | [18] > 100 µM | [10] > 100 µM | [11] > 100 µM | [12] > 100 µM | [13] > 100 µM | [14] > 100 µM

CO/C(=N\N=C\c1cc(OC)ccc1OC)c1ccncc1
inactive: [2] > 10 µM | [3] > 10 µM | [4] > 10 µM | [15] > 10 µM | [5] > 10 µM | [6] > 10 µM | [16] > 10 µM | [17] > 10 µM | [8] > 10 µM | [9] > 10 µM | [10] > 10 µM | [11] > 10 µM | [12] > 10 µM | [13] > 10 µM

COC(=O)CSc1[nH]c2nc(C)nc(Nc3ccccc3)c2c1C#N
inactive: [1] > 10 µM | [2] > 10 µM | [3] > 10 µM | [4] > 10 µM | [5] > 10 µM | [6] > 10 µM | [7] > 10 µM | [8] > 10 µM | [9] > 10 µM | [10] > 10 µM | [11] > 10 µM | [12] > 10 µM | [13] > 10 µM | [14] > 10 µM

CCN(CC)c1nc(NC2CCCCC2)c2nc(N(CC)CC)nc(NC3CCCCC3)c2n1
inactive: [2] > 100 µM | [3] > 100 µM | [4] > 100 µM | [15] > 100 µM | [5] > 100 µM | [6] 73.1 µM | [16] > 100 µM | [8] > 100 µM | [9] > 100 µM | [18] > 100 µM | [10] > 100 µM | [11] > 100 µM | [12] > 100 µM | [13] > 100 µM | [14] > 100 µM

Cc1ccc(Cc2nnc(S)[nH]2)cc1
inactive: [1] > 100 µM | [2] 94.8 µM | [3] 25.8 µM | [4] 56.6 µM | [15] 54.8 µM | [5] 79.1 µM | [6] 61.9 µM | [7] 32.3 µM | [16] > 100 µM | [17] > 100 µM | [8] 50.8 µM | [18] > 100 µM | [10] > 100 µM | [11] > 100 µM | [12] > 100 µM | [13] > 100 µM | [14] > 100 µM

CN(C)NC(=O)NC12CC3CC(CC(C3)C1)C2
inactive: [1] > 100 µM | [2] > 100 µM | [3] > 100 µM | [4] > 100 µM | [15] > 100 µM | [5] > 100 µM | [7] > 100 µM | [16] > 100 µM | [17] > 100 µM | [8] > 100 µM | [9] > 100 µM | [11] > 100 µM | [12] > 100 µM | [19] > 100 µM | [13] > 100 µM | [14] > 100 µM

CCOC(=O)C1(Cc2ccccc2)Cc2ccccc2C1=O (configuration not stated)
inactive: [1] > 10 µM | [2] 24 µM | [3] 19.1 µM | [4] 27.8 µM | [15] 27.4 µM | [5] 26.6 µM | [6] 35.2 µM | [7] 18.7 µM | [16] 30.4 µM | [17] 14.8 µM | [8] 35.2 µM | [9] 29.2 µM | [18] 30.8 µM | [10] 16.4 µM | [11] 27.7 µM | [12] 30.8 µM | [13] 33.7 µM | [14] 20.8 µM

C=CCNC(NCC=C)=C(C(Cl)=C(Cl)Cl)[N+](=O)[O-]
inactive: [1] > 100 µM | [2] 16.7 µM | [4] 26.5 µM | [15] 30.4 µM | [5] 65.5 µM | [6] > 100 µM | [7] 31.8 µM | [16] > 100 µM | [17] > 100 µM | [9] 53.8 µM | [18] 26.2 µM | [10] 32.5 µM | [11] 59.2 µM | [12] > 100 µM | [13] 22.9 µM | [14] > 100 µM

NS(=O)(=O)c1ccc(CNc2nc(-c3cccs3)nc3ccc(I)cc23)cc1
inactive: [15] 14.9 µM | [5] 8.57 µM | [6] 21.4 µM | [7] 10.7 µM | [16] 19.2 µM | [8] 12.2 µM | [9] 23.1 µM | [18] 11.2 µM | [10] 19.5 µM | [11] 22.9 µM | [12] 22.6 µM | [19] 14.7 µM | [13] 31.5 µM | [14] 16.5 µM
